According to US8865672B2, “Prevention of tissue ischemia and related methods” (The United States of America, as represented by the …, priority 2006, dated 2014):
Values belong to the molecule of their own block, whether it stands above or below them. Peptide text beside a SMILES is read from it. * marks the point of attachment. Biotin = O=C1N[C@H]2[C@H](CS[C@H]2CCCCC(=O)*)N1

What was measured:
Rap1 = Rap1 pulldown assay in platelets; type: cell-based, human; details: thrombin
Description: Platelets were diluted to 5×10^8 platelets/mL in Tyrode's buffer and treated with various reagents for the indicated times. Immediately following treatment, platelets were pelleted at 13,000 g for 30 seconds at 4° C. and resuspended in ice-cold lysis buffer containing 20 mM HEPES (pH 7.5), 100 mM NaCl, 10 mM EGTA, 20 mM MgCl2, 8 mM α-glycerophosphate, 1% Triton X-100, 1 mM phenylmethylsulfonylfluoride, 40 mM NaF, 1 mM Na3VO4, 10 μg/mL aprotinin, and 10 μg/mL leupeptin. Lysates were centrifuged at 13,000 g for 5 minutes at 4° C. and the supernatants were incubated for 15 minutes on a tumbler at 4° C. with glutathione Sepharose 4B beads (Amersham) prebound with a GST-Ral GDS RBD fusion protein (kind gift of J. Silvio Gutkind, NIH, Bethesda, Md.). Bead complexes were washed by centrifugation at 6,000 g for 30 seconds at 4° C. followed by resuspension in 0.5 mL lysis buffer; 2 washes were performed for each sample. After the second wash, beads were resuspended in an equal volume of 2×SDS sample buffer and stored at −20° C. For Western analysis, bead-bound proteins in sample buffer were boiled for 10 minutes and subjected to electrophoresis on NuPAGE 10% Bis-Tris gels (Invitrogen, Carlsbad, Calif.), transferred to Immobilon-P PVDF membranes (Millipore, Billerica, Mass.), and blotted with rabbit polyclonal anti-Rapt (sc-65; Santa Cruz Biotechnology, Santa Cruz, Calif.).

VASP = assay: Phospho-Ser239 VASP Western blotting in platelets; type: cell-based, human; details: 8Br-cGMP 100 μM, TSP1 2.2 nM
Description: Washed human platelets (resuspended in Tyrode's buffer to 3×10^8 platelets/mL to a final volume of 0.5 mL) were incubated at 37° C. for 30 minutes before treatment. TSP1 was added 15 minutes prior to treatment. Immediately following treatment, platelets were pelleted at 13,000×g at 4° C. for 15 seconds and resuspended in 1 mL of a lysis buffer containing 10 mM Tris-HCl (pH 7.5), 150 mM NaCl, 1 mM EDTA, 1 mM Na3VO4, 40 mM NaF, 1 μg/mL aprotinin, 1 μg/mL leupeptin, 1 mM phenylmethysulfonylfluoride and 1% […]. This suspension was placed at 4° C. with gentle agitation for 5 minutes before centrifugation at 13000×g for 5 minutes at 4° C. 5 μg lysates were electrophoresed on 4-12% Bis-Tris NuPAGE gels, transferred to Immobilon PVDF membranes and probed with a rabbit polyclonal antiserum against Serine 239-phosphorylated VASP (Santa Cruz Biotechnology, Santa Cruz, Calif.).

[1] = test system: murine WT and TSP1-null platelets; assay: Thrombin-induced murine platelet aggregation; type: cell-based, mouse; details: high shear
Description: Aggregation of human platelets under high shear conditions was assessed using a standard optical aggregometer (Lumi-Dual Aggregometer, Chrono-Log Corp., Havertown, Pa.) at 37° C. and 1200 rpm in a volume of 500 μl buffer with a final platelet concentration of 2×10^5 platelets/μl over a 5 minute interval. Pre-incubation with TSP1 and TSP1-based agents was for 15 minutes prior to addition of thrombin and/or the rapidly releasing nitric oxide donor DEA/NO. In some experiments platelets were pre-incubated with the Rap1 inhibitor GGTI-298 (10 μM) (Calbiochem, La Jolla, Calif.) for 30 minutes prior to initiating aggregation. In other high shear aggregation experiments murine platelets were prepared as above with the following modifications. Mouse blood was collected by retro-orbital bleeding of anesthetized mice using heparinized tubes. PRP was prepared and then diluted with 4 vol. of Tyrodes containing 5 mM EDTA to prevent activation. After collection by centrifugation, platelets were resuspended in 2× initial PRP volume and held at room temperature for less than 1 hour before use. […] Platelet aggregation under static conditions was assessed using a spectrophotometer (Beckman DU 640, Beckman Coulter, Fullerton, Calif.) and determined as a change in absorbance at 400 nm with continuous observation over a five minute interval. […]

NO/cGMP signaling = assay: cGMP signaling (NO-stimulated cGMP, immunoassay); type: cell-based, human; details: concentration for 50% inhibition of effect
Procedure, shortened: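 Endothelial or HT-1080 cells (10^4 cells/well) serum-weaned over 48 h, then treated with NO donors and other agents in serum-free medium + 0.1% BSA. Intracellular cGMP measured by enzyme immunoassay; washed human platelets were also treated ± NO in Tyrode's buffer for cGMP determination.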

[2] = test system: VSMC and endothelial cells; assay: NO-stimulated adhesion of VSMC and endothelial cells to type I collagen (Example 9); type: cell-based; details: 10 μM DEA/NO
Description: Vascular cells (VSMC or endothelial) were plated at 10,000 cells/well onto 96-well plates (Maxisorb, Nunc) precoated with type I collagen (3 μg/ml). […] Plates were then washed with PBS, fixed with glutaraldehyde, stained with crystal violet, and washed. Absorbed stain was solubilized with acetic acid from fixed cells and the resulting color signal determined on a MR580Microelisa Auto Reader, (Dynatech, Alexandria, Va.) at 450 nm wavelength.

[3] = test system: endothelial cells and platelets; assay: NO-stimulated cGMP flux in endothelial cells and platelets (Example 9); type: cell-based, human; details: 10 μM DEA/NO
Description: Vascular cells (endothelial) or HT-1080 cells (10^4 cells/well) grown overnight in 12-well culture in SM-GM containing 2% FCS or RPMI+10% FCS respectively and then weaned off serum over 48 h before treatment with NO donors and other agents in serum/additive free medium+0.1% BSA. Intracellular cGMP levels were determined using an enzyme immunoassay (Amersham, GE Health Care, UK). In other experiments fresh washed human platelets were incubated in Tyrode's buffer and the indicated treatment agents±NO and cGMP determined.
Endothelial cells (FIG. 62C) and platelets (FIG. 62D) in basal medium without serum or Tyrode's buffer respectively were treated with the indicated peptides±NO (10 μM DEA/NO) and cGMP levels determined.

human platelets = assay: Thrombin-induced human platelet aggregation; type: cell-based; details: low shear, peptide 1 μM, 10 μM DEA/NO
Procedure, shortened: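 Washed human platelets in Tyrode's buffer pH 7.4 (2×10^5/μl) are stirred at 1200 rpm and 37 °C, and optical aggregation is followed for 5 min; under static conditions, A400 is tracked for 5 min instead. TSP1 agents or 1 μM peptide C6d are pre-incubated for 15 min before thrombin ± DEA/NO (10 μM).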

[4] = molecular target: T1, CD47 IgV domain / SIRP IgV domain (Homo sapiens, UniProt Q08722); assay: ELISA of SIRP IgV domain binding to CD47 IgV domain; details: Fc-SIRP IgV on protein A plates, alkaline phosphatase-CD47 IgV
T1 construct: alkaline phosphatase fusions of the CD47 IgV domain
T1 sequence (Q08722 19-127 limits assumed): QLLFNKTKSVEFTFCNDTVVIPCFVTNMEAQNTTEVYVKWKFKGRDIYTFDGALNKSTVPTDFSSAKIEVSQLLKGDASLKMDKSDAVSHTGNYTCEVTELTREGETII
From the text: SIRP-alpha (Signal Inhibitory Regulatory Protein Alpha; SIRPα) and the closely related SIRP-gamma (SIRPγ formerly called SIRP-beta) are two ligands of CD47. They consist of an N-terminal IgV set domain and variable numbers of 1 g domains followed by a transmembrane segment and variously spliced cytoplasmic tails, some of which contain phosphorylatable tyrosines that constitute docking sites for tyrosine phosphatases such as SHP-1 and SHP-2. The IgV domain of SIRP-alpha and -gamma are high affinity ligands of CD47 with species specificity thought to allow self vs. non-self discrimination by phagocytes. The binding of the IgV domain of SIRPα to the IgV domain of CD47 can be measured in a simple ELISA assay using recombinant versions of each protein. For this purpose we have employed Fc-fusions of SIRP IgV domain and alkaline phosphatase fusions of the CD47 IgV domain. The Fc-IgV protein is adsorbed to well plates coated with protein A to which the Fc binds. Potential inhibitors are added and the binding of alkaline phosphatase-conjugated CD47 IgV domain is measured by routine procedures.

HASMC [5] = assay: NO-stimulated HASMC adhesion on type I collagen; type: cell-based, human; details: DEA/NO 10 μM
Description: Cell adhesion was carried out in 96-well culture plates. After pre-coating wells with type I collagen (3 μg/ml in DPBS) harvested cells were plated at a density of 1×10^4 cells/well in medium plus 0.1% BSA and treatment agents and incubated in 5% CO2 for 1 h. Wells were washed with PBS and cells fixed with 1% glutaraldehyde for 10 min., washed and stained with 1% crystal violet for 20 min. Excess stain was rinsed away, adherent cells treated with 10% acetic acid, and plates read at 570 nm.

HASMC [6] = assay: Intracellular cGMP in HASMC; type: cell-based, human; details: DEA/NO 10 μM, 5 minutes
HUVEC = assay: Intracellular cGMP in HUVEC; type: cell-based, human; details: DEA/NO 10 μM
Description: HUVEC (10^4 cells/well) grown overnight in 96-well culture plates containing full growth medium with 2% FCS and weaned in growth medium without additives and 1% FCS over 24 hrs before treatment with NO donors and other agents in SM-GM without additives+0.1% BSA. Intracellular cGMP levels were determined according to the manufacturer's instructions using an enzyme immunoassay kit (Amersham Biosciences). In other experiments ASMC from wild type and CD36 or CD47 null mice were plated onto 96-well culture plates and incubated overnight in full growth medium. They were then weaned off serum as described to SM-GM+0.1% BSA and treated with NO donor and other agents as indicated. Intracellular cyclic nucleotides were determined via immunoassay.

Molecule: Nc1nc2c(nc(Br)n2[C@@H]2O[C@@H]3COP(=O)(O)O[C@H]3[C@H]2O)c(=O)[nH]1 [8Br-cGMP, 8-Bromo cyclic guanine monophosphate, reference compound]
Rap1 activation (GTP loading) (Rap1): inhibited this activation
VASP phosphorylation at Ser239 (VASP): stimulates VASP phosphorylation at Ser239
thrombin-induced aggregation ([1]; TSP1-null platelets): rendered TSP1-null platelets resistant to thrombin-induced aggregation
thrombin-induced aggregation ([1]; WT murine platelets): substantially inhibited aggregation of WT murine platelets

Molecule: CC[C@H](C)[C@H](N)C(=O)NCC(=O)N[C@@H](Cc1c[nH]c2ccccc12)C(=O)N[C@@H](CCCCN)C(=O)N[C@@H](CC(=O)O)C(=O)N[C@@H](Cc1ccc(O)cc1)C(=O)N[C@H](C(=O)N[C@@H](C)C(=O)N[C@@H](Cc1ccc(O)cc1)C(=O)N[C@@H](CCCNC(=N)N)C(=O)O)[C@@H](C)O [compound 37298, IGWKDYTAYR] (H-IGWKDYTAYR-OH)
IC50 (NO/cGMP signaling): ~100 nM
inhibition of binding of the SIRP IgV domain to CD47 [4]: can inhibit the binding

Molecule: E3CaG1: recombinant C-terminal regions of TSP1
concentration that inhibited NO-driven HASMC adhesion to collagen (HASMC [5]): > 0.4 nM
NO-stimulated cGMP levels in HASMC (HASMC [6]): equipotent dose-dependent inhibitors
NO-driven cGMP production (HUVEC): potently inhibited

More lines, main results first:

IC50 (NO/cGMP signaling): ~100 nM
Molecule: CC[C@H](C)[C@H](NC(=O)[C@@H](N)Cc1c[nH]cn1)C(=O)NCC(=O)N[C@@H](Cc1c[nH]c2ccccc12)C(=O)N[C@@H](CCCCN)C(=O)N[C@@H](CC(=O)O)C(=O)N[C@@H](Cc1ccccc1)C(=O)N[C@H](C(=O)N[C@@H](C)C(=O)N[C@@H](Cc1ccc(O)cc1)C(=O)N[C@@H](CCCNC(=N)N)C(=O)N[C@@H](Cc1c[nH]c2ccccc12)C(=O)N[C@@H](CCCNC(=N)N)C(=O)N[C@@H](CC(C)C)C(=O)N[C@@H](CO)C(=O)O)[C@@H](C)O [C6b, HIGWKDFTAYRWRLS] (H-HIGWKDFTAYRWRLS-OH)
NO-stimulated adhesion to type I collagen [2]: blocked in a dose-dependent manner
NO-stimulated cGMP flux [3]: Blocked

IC50 (NO/cGMP signaling): ~100 nM
Molecule: CC[C@H](C)[C@H](NC(=O)CCCC[C@@H]1SC[C@@H]2NC(=O)N[C@@H]21)C(=O)NCC(=O)N[C@@H](Cc1c[nH]c2ccccc12)C(=O)N[C@@H](CCCCN)C(=O)N[C@@H](CC(=O)O)C(=O)N[C@@H](Cc1ccccc1)C(=O)N[C@H](C(=O)N[C@@H](C)C(=O)N[C@@H](Cc1ccc(O)cc1)C(=O)N[C@@H](CCCNC(=N)N)C(=O)O)[C@@H](C)O [C6d, biotin-IGWKDFTAYR] (Biotin-IGWKDFTAYR-OH)
NO-stimulated adhesion to type I collagen [2]: blocked in a dose-dependent manner
NO delay of thrombin-stimulated aggregation (human platelets): completely reversed
NO-stimulated cGMP flux [3]: Blocked
